Assay results published in US20150335670A1, “Medical applications of Notoginsenoside Fc” (SHANGHAI UNIVERSITY OF TRADITIONAL CHINESE MEDICINE, priority 2013, published 2015).
Several values for one entry are separate records, joined by “and”; a condition that tells them apart may be missing. Equal entries are not always repeated.

Tests used:
platelet = test: In vitro platelet aggregation assay (ADP-induced, nephelometry); assay type: cell-based, rat
Procedure: 2.1.1 In vitro platelet aggregation assay: blood samples were placed in a centrifuge tube pre-coated with sodium citrate and centrifuged at 100 g for 5 min. The supernatant was collected and designated as rich platelet (PRP). After addition of prostacyclin (2 μg/ml), PRP was centrifuged at 700 g for 5 min and washed twice with 0.9% saline. The washed platelets were re-suspended in Tyrode buffer and diluted at a density of 4×10^8 cells/ml for further utilization. Platelet aggregation assay was provided according to a nephelometry method: platelet plasma was placed in cuvette; after addition of a inducing agent (ADP: 5-adenosine diphosphate disodium salt: 1×10^−4 mol/L), the platelet plasma was stirred with magnetic particles, wherein platelet was gradually aggregated, plasma turbidity was reduced, and transmittance was increased. Changes were recorded for drawing a dynamic curve of platelet aggregation. Aggregation rate and transmittance for PRP were regarded as 0; aggregation rate and transmittance of suspension were regarded as 100%. A platelet aggregation instrument was used for automatic measurement, recording, and drawing the platelet aggregation curve. For judging inhibiting or promoting of aggregation, it was mainly depending on whether synergy or antagonism happened with the inducing agent; wherein synergy was to promote platelet aggregation, antagonism was to inhibit platelet aggregation.
Blank control group: 0.9% physiological saline (NS).
Model group: adenosine diphosphate (ADP) (10 mM).
Positive control group: clopidogrel (5 mM).
Treatment groups: six rats for each group, Fc dissolved in double distilled water (prepared with different concentrations).

platelet thrombus = test: Whole animal thrombogenesis assay (extracorporeal circulation model, thrombus weight); assay type: in vivo, rat; conditions: rats, 8.1 mg/kg intravenous, extracorporeal circulation started 5 min later, 15 min, blank control 37.2 mg
From the text: 2.1.2 Whole animal thrombogenesis assay: when arterial blood platelets contact a rough surface of a wire, the platelets are adhered to the wire and form platelet thrombus on a surface thereof. When platelet adhesion and aggregation function is suppressed, thrombus is light. Therefore, thrombus weight can measure platelet adhesion and aggregation functions.
Referring to FIG. 3, effect of the notoginsenoside Fc on the platelet aggregation function is illustrated. […] In the extracorporeal circulation model, the rats were intravenous administered with Fc at dose of 8.1 mg/kg. Five minutes later, the extracorporeal circulation was initiated and stopped after fifteen minutes. The thrombus formed on the thread was weighed. Significant difference was found between the blank control group and the Fc treatment group (**P<0.01).

rat tail bleeding = test: Bleeding time assay (rat tail transection); assay type: in vivo; conditions: rats; vs control
From the text: 2.1.3.1 Bleeding time assay: rat tail was transected 0.5 cm from the tip to induce bleeding. And the bleeding time was defined as the time from the start of transection to bleeding cessation. The time at which the flow of blood ceased for 30 s was considered as bleeding cessation.

rat plasma = test: Blood coagulation index APTT in rat plasma; assay type: biochemical
From the text: (§1) 2.1.3.2 Four indexes of blood coagulation: i) Prothrombin time (PT) mainly reflects extrinsic coagulation conditions. Its value is increased when the levels of coagulation factor IX and XI in plasma are reduced, which usually occurs in hemophilia, hemophilia B and factor XI deficiency patients. Conversely, the reduction of it is seen in hypercoagulable state, when the procoagulant substances get into blood and the activity of coagulation factors is increased. ii) Activated partial thromboplastin time (APTT) reflects mainly intrinsic coagulation conditions. Its value is changed under the similar condition as PT. iii) Thrombin time (TT) mainly reflects the abnormality in the conversion of fibrinogen into fibrin. Its value is elevated in DIC hyperfibrinolysis period, afibrinogenemia and hemoglobin hyperlipidemia, and when degradation products (FDPs) of blood fibrin are increased. iv) Fibrinogen (Fibrinogen, FIB) mainly reflects the content of fibrinogen in plasma. Generally, its concentration is elevated in acute myocardial infarction. The reduction of it is observed in DIC dissolution of low consumption of coagulation, primary fibrinolysis, severe hepatitis, hepatic cirrhosis.

standard human plasma = test: Four indexes of blood coagulation (APTT, PT), human; assay type: biochemical; conditions: 80 μg/ml
From the text: Notoginsenoside Fc (molecular weight 1211.38, HPLC purity≧99%, from Institute of Chinese Materia Medica), clopidogrel (molecular weight 419.90, HPLC purity≧98%, from National Institutes for Drug Control), standard human plasma, reagents for measurement of four indexes of blood coagulation (from Siemens, Germany), and adenosine diphosphate (ADP) (from Sigma, USA).
as §1, with “Generally, its concentration is elevated in acute myocardial infarction. The reduction of it is observed in DIC dissolution of low consumption of coagulation, primary fibrinolysis, severe hepatitis, hepatic cirrhosis.” left out

[1] = system: acute myocardial infarction in rats; test: Acute myocardial infarction in rats (coronary ligation, TTC staining, pathohistology); assay type: in vivo, rat; conditions: for myocardial infarction area (ischemic area %): individual animals
Procedure: Model preparing method: 30 SD rats (Shanghai University of Traditional Chinese Medicine Experimental Animal Center), weight: 320-370 g; rat was treated with anesthesia with pentobarbital (35 mg/kg), supine fixing; neck midline incision, separating trachea, tracheotomy, inserting a breathing tube, adjusting a frequency and tidal volume of a ventilator; median sternotomy thoracotomy (3-4 intercostal), using thin surgical needle and line six for starting at a left atrial appendage, and ligation at pulmonary cone. Successful standard thereof was that: observing with naked eyes (anterior descending artery blood supply area was darken or pale). Chest was quickly closed. For the sham group, the line passed the left anterior descending coronary artery bypass without ligation.
TTC staining: rat hearts were frozen at −20° C., and were taken out after being hard; the rat hearts were left-coronally excised into 5-6 pieces at a thickness of 3-4 mm. Then the rat hearts were placed in 0.5% TTC solution, and incubated at 37° C. for 15 min. The pieces were taken out and fixed in 4% formaldehyde solution.
The hearts were cut according to two different colors and drained water with filter paper before weighing. Calculation formula was as follows: ischemic area (%)=[…]×100%. Meanwhile, the hearts were partly acquired for pathological analysis.
Control group: six rats, administered with 0.9% physiological saline (NS) after surgery.
Sham operation group: six rats, opening chest and passing line without ligation.
Positive medicine group: six rats, administered with ticagrelor (4.1 mg/kg) after surgery.
4 mg/kg Fc treatment group: six rats, administered with Fc (4 mg/kg) after surgery.
12 mg/kg Fc treatment group: six rats, administered with Fc (12 mg/kg) after surgery.

Compound: CC(C)=CCC[C@](C)(O[C@@H]1O[C@H](CO[C@@H]2OC[C@@H](O)[C@H](O)[C@H]2O)[C@@H](O)[C@H](O)[C@H]1O)[C@H]1CC[C@]2(C)[C@@H]1[C@H](O)C[C@@H]1[C@@]3(C)CC[C@H](O[C@@H]4O[C@H](CO)[C@@H](O)[C@H](O)[C@H]4O[C@@H]4O[C@H](CO)[C@@H](O)[C@H](O)[C@H]4O[C@@H]4OC[C@@H](O)[C@H](O)[C@H]4O)C(C)(C)[C@@H]3CC[C@]12C [Notoginsenoside Fc, notoginsenoside Fc]
- IC50 (platelet; ADP-induced, 0.1-40 μM, read-out: IC50 (inhibition of platelet aggregation)): 13.5 µM
- platelet aggregation rate (platelet; ADP-induced, Fc 200 μM): 25.8%
- aggregation rate (%) (platelet; ADP-induced, dose 0.1 μM, listed as Fc): 47.9%
- aggregation rate (%) (platelet; ADP-induced, dose 0.1 μM, listed as notoginsenoside Fc): 47.98%
- aggregation rate (%) (platelet; ADP-induced, dose 10 μM): 42.83%
- aggregation rate (%) (platelet; ADP-induced, dose 20 μM): 32.33%
- aggregation rate (%) (platelet; ADP-induced, dose 30 μM): 31.60%
- aggregation rate (%) (platelet; ADP-induced, dose 40 μM, listed as Fc): 28.1%
- aggregation rate (%) (platelet; ADP-induced, dose 40 μM, listed as notoginsenoside Fc): 28.13%
- decreasing amplitude of platelet aggregation rate (platelet; from 0.1 μM to 40 μM): up to 19.8%
- weight of thrombus (wet weight) (platelet thrombus; listed as FC): 28.2 mg
- weight of thrombus (wet weight) (platelet thrombus; listed as Fc): actively reduce thrombogenesis
- rat tail bleeding time (rat tail bleeding): significantly prolonged
- APTT Time (rat plasma; 5 μg/ml): 19.20 s
- APTT Time (rat plasma; 5 μg/ml, listed as Fc): 19 s
- APTT Time (rat plasma; 10 μg/ml): 20.31 s
- APTT Time (rat plasma; 20 μg/ml): 21.61 s
- APTT Time (rat plasma; 80 μg/ml): 28.25 s
- APTT Time (rat plasma; 160 μg/ml): 32.65 s
- APTT Time (rat plasma; 160 μg/ml, listed as Fc): 32 s
- difference in APTT (rat plasma; from 5 μg/ml to 160 μg/ml): 13 s
- APTT (standard human plasma; blank control 91 s): 126 s
- PT (standard human plasma; vs blank control): longer
- myocardial infarction area (ischemic area %) ([1]; Fc 4 mg/kg after surgery): 17.27% and 22.31% and 22.8% and 19.05% and 19.74% and 16.88%
- pathohistology of myocardium ([1]; Fc 4 mg/kg, FIG. 12): arrangement of most of the myocardial cells was normal
- myocardial infarction area (ischemic area %) ([1]; Fc 12 mg/kg after surgery): reduced more myocardial infarction than the positive medicine group and 5.843% and 3.482% and 5.463% and 4.892% and 5.19% and 4.595%
- pathohistology of myocardium ([1]; Fc 12 mg/kg, FIG. 13): arrangement of the myocardial cells was almost normal
- percentage of the infarcted area ([1]; Fc 4 and 12 mg/kg, FIG. 8, vs control): significantly reduced

Compound: CCCSc1nc(N[C@@H]2C[C@H]2c2ccc(F)c(F)c2)c2nnn([C@@H]3C[C@H](OCCO)[C@@H](O)[C@H]3O)c2n1 [ticagrelor, reference compound]
- myocardial infarction area (ischemic area %) ([1]; ticagrelor 4.1 mg/kg after surgery): 15.15% and 17% and 13.85% and 14.24% and 16.69% and 16.94%
- pathohistology of myocardium ([1]; ticagrelor 4.1 mg/kg, FIG. 11): arrangement of myocardial cells was disordered in local area
